Source: patent US11370846B2, “Compositions and methods to regulate Renalase in the treatment of cancer” (Yale University, priority 2014, dated 2022)

Tests used:
WT mice = test: Renal ischemia and reperfusion in WT mice with renalase peptide RP-H220; format: in vivo, mouse; conditions: 30 minutes of renal ischemia and reperfusion
Method: FIG. 3 is a chart showing that ERK or AKT inhibition abrogates protective effect of renalase peptide: WT mice subjected to sham surgery or to 30 minutes of renal ischemia and reperfusion; RP-[…] or vehicle (saline) injected 10 minutes before renal ischemia. ERK inhibitor PD98059 or the PI3K/AKT inhibitor wortmannin abrogated RP-[…]'s protective effect.

MiaPaCa2 cell = conditions: pretreatment, MiaPaCa2, WST-1, 72 hrs
Method: FIG. 24B is a chart depicting cell viability relative to control: MiaPaCa2 cell serum starved and then treated with BSA (30 μg/ml) or rRNLS (30 μg/ml), with and without pretreatment with MEK1 inhibitor U0126, and cell viability measured 72 hrs later using the WST-1 assay; n=6, * indicates p<0.005.
For some studies, cell viability was determined using the WST-1 reagent (Roche Diagnostics, Indianapolis, Ind., USA) as previously described (Wang et al., 2014 Journal of the American Society of Nephrology. DOI:10.1681/asn.2013060665).

| SMILES | effect on RP-H220's protective effect (WT mice) | effect on rRNLS' protective effect (MiaPaCa2 cell) |
| --- | --- | --- |
| COc1cccc(-c2cc(=O)c3ccccc3o2)c1N [PD98059] | abrogated RP-H220's protective effect | – |
| N#CC(=C(/N)Sc1ccccc1N)/C(C#N)=C(\N)Sc1ccccc1N [U0126] | – | abrogated rRNLS' protective effect |
